Reference: US10940139B2, “Compounds that interact with the Ras superfamily for the treatment of cancers, inflammatory diseases, rasopathies, and fibrotic disease” (Shy Therapeutics LLC, priority 2017, dated 2021)

What was measured:
Rac-1 = Rac-1 (Homo sapiens (Human), UniProt P63000); assay: Rac inhibition assay (labeled GTP); assay type: binding; conditions: read-out: Rac-1 % Inh.
Rho-A = Rho-A (Homo sapiens (Human), UniProt P61586); assay: Rho inhibition assay (labeled GTP); assay type: binding; conditions: read-out: Rho-A % Inh.
[1] = molecular target: KRas G12D/Q61H double mutant (Homo sapiens (Human), UniProt P01116, G12D/Q61H); assay: Ras GTP binding domain inhibition assay (labeled GTP); conditions: at 20 μM; read-out: KRas G12D Q61H % Inh.
Procedure, shortened: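 Labelled-GTP binding: plate-captured His-KRas protein was pre-exposed to compound for 3 h at room temperature (single 20 μM point or dilution series, 1% DMSO, Tris pH 7.5/MgCl2/DTT buffer). Cy3- or Cy5-GTP was then added for 45 min. Washed wells were read for retained fluorescence to give inhibition or IC50.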

KRas G12D/Q61H double mutant, sequence (P01116-2 other isoform, or with tags, fused parts or gaps G12D/Q61H): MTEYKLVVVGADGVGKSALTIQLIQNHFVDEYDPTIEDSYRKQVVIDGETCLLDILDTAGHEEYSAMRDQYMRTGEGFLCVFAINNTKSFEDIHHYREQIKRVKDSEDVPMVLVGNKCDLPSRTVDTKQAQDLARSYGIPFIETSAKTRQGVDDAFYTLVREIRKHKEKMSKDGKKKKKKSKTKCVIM
Rho-A, sequence (P61586 whole entry, the tested form may be a part): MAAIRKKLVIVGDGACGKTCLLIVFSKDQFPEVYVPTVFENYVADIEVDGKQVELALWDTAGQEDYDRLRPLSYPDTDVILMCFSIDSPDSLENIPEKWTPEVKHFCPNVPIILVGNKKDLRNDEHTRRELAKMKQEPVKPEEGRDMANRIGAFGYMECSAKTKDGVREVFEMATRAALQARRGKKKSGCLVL

Structure (SMILES)	inhibition at 20 µM (Rac-1) [%]	inhibition at 20 µM (Rho-A) [%]	inhibition at 20 µM [1] [%]
Cc1ccccc1C1CN(C(=O)c2csc3c(O)nc(-c4ccccn4)nc23)CCN1 (stereo not drawn) [drawing 3664]	76 to 100	76 to 100	25 to 50
O=C(c1csc2c(O)nc(-c3ccccn3)nc12)N1CCNC(c2ccccc2F)C1 (stereo not drawn) [drawing 3665]	76 to 100	76 to 100	25 to 50
Cn1cc(C2CN(C(=O)c3csc4c(O)nc(-c5ccccn5)nc34)CCN2)cn1 (stereo not drawn) [drawing 3666]	76 to 100	76 to 100	1 to 25
O=C(c1csc2c(O)nc(-c3ccccn3)nc12)N1CCNC(Cc2ccccc2)C1 (stereo not drawn) [drawing 3667]	76 to 100	76 to 100	25 to 50
O=C(NCCc1ccncc1)c1csc2nc(-c3ccccn3)nc(N3CCOCC3)c12 [drawing 3668]	76 to 100	51 to 75	0
COc1ccncc1CCNC(=O)c1csc2nc(-c3ccccn3)nc(N3CCOCC3)c12 [drawing 3669]	51 to 75	25 to 50	1 to 25
COc1cc(CCN(C)C(=O)c2csc3nc(-c4ccccn4)nc(N4CCOCC4)c23)ccn1 [drawing 3670]	76 to 100	51 to 75	0
O=C(NCCc1ccnc(O)c1)c1csc2nc(-c3ccccn3)nc(N3CCOCC3)c12 [drawing 3672]	25 to 50	25 to 50	1 to 25
O=C(NCCc1cncnc1)c1csc2nc(-c3ccccn3)nc(N3CCOCC3)c12 [drawing 3673]	51 to 75	51 to 75	1 to 25
O=C(NCCc1ccc(O)c(O)c1)c1csc2nc(-c3ccccn3)nc(N3CCOCC3)c12 [drawing 3674]	25 to 50	25 to 50	0
O=C(NCCc1nnn[nH]1)c1csc2nc(-c3ccccn3)nc(N3CCOCC3)c12 [drawing 3675]	76 to 100	51 to 75	1 to 25
N#Cc1cccc(CCNC(=O)c2csc3nc(-c4ccccn4)nc(N4CCOCC4)c23)c1 [drawing 3676]	51 to 75	51 to 75	1 to 25
CN(CCc1cccc(C#N)c1)C(=O)c1csc2nc(-c3ccccn3)nc(N3CCOCC3)c12 [drawing 3677]	76 to 100	51 to 75	1 to 25
COCCCCNC(=O)c1csc2nc(-c3ccccn3)nc(N3CCOCC3)c12 [drawing 3678]	51 to 75	51 to 75	1 to 25
COCCCCN(C)C(=O)c1csc2nc(-c3ccccn3)nc(N3CCOCC3)c12 [drawing 3679]	76 to 100	51 to 75	1 to 25
CNS(=O)(=O)CCCNC(=O)c1csc2nc(-c3ccccn3)nc(N3CCOCC3)c12 [drawing 3680]	76 to 100	51 to 75	1 to 25
COCCN(CCOC)c1nc(-c2ccccn2)nc2scc(C(=O)NCCc3ccc(OC)nc3)c12 [drawing 3681]	51 to 75	51 to 75	1 to 25
COCCCCNC(=O)c1csc2nc(-c3ccccn3)nc(N(CCOC)CCOC)c12 [drawing 3682]	76 to 100	51 to 75	0
CC(C(=O)Nc1ccnc(-c2ccccn2)n1)c1ccc(C#N)cc1 (stereo not drawn) [drawing 3683]	76 to 100	51 to 75	1 to 25
COc1ccc2c(c1)CCC2C(=O)Nc1ccnc(-c2ccccn2)n1 (stereo not drawn) [drawing 3684]	51 to 75	51 to 75	1 to 25
N#Cc1ccc(COCC(=O)Nc2ccnc(-c3ccccn3)n2)cc1 [drawing 3685]	76 to 100	51 to 75	0
Cc1cnc(-c2ccccn2)nc1NC(=O)C(C)c1ccc(C#N)cc1 (stereo not drawn) [drawing 3686]	76 to 100	51 to 75	1 to 25
CC(C(=O)Nc1nc(-c2ccccn2)nc2sccc12)c1ccc(C#N)cc1 (stereo not drawn) [drawing 3687]	76 to 100	76 to 100	1 to 25
COc1cnc(CN)[nH]c1=O [drawing 3690]	25 to 50	25 to 50	25 to 50
COc1ccc(N2CCN(C(=O)c3csc4c(O)nc(-c5ccccn5)nc34)CC2)cc1O [drawing 3691]	76 to 100	76 to 100	1 to 25
O=C(c1csc2c(O)nc(-c3ccccn3)nc12)N1CCN(c2ccc(O)c(Cl)c2)CC1 [drawing 3692]	76 to 100	76 to 100	51 to 75

Structure (SMILES)	inhibition at 20 µM (Rac-1) [%]	inhibition at 20 µM (Rho-A) [%]	inhibition at 20 µM [1] [%]
CC(c1ccccc1)N1CCN(C(=O)c2csc3c(O)nc(-c4ccccn4)nc23)CC1 (stereo not drawn) [drawing 3693]	76 to 100	76 to 100	51 to 75
O=C(c1csc2c(O)nc(-c3ccccn3)nc12)N1CCOC(CN2CCOCC2)C1 (stereo not drawn) [drawing 3694]	76 to 100	51 to 75	1 to 25
O=C(c1csc2c(O)nc(-c3ccccn3)nc12)N1CCNC(c2ccccc2Cl)C1 (stereo not drawn) [drawing 3695]	76 to 100	76 to 100	25 to 50
O=C(c1csc2c(O)nc(-c3ccccn3)nc12)N1CCNC(c2ccc(F)cc2)C1 (stereo not drawn) [drawing 3696]	76 to 100	76 to 100	1 to 25
COCCCCNC(=O)c1csc2nc(-c3ccccn3)nc(N3CCS(=O)(=O)CC3)c12 [drawing 3698]	1 to 25	1 to 25	1 to 25
COc1cccc(CC2CN(C(=O)c3csc4c(O)nc(-c5ccccn5)nc34)CCN2)c1 (stereo not drawn) [drawing 3702]	76 to 100	51 to 75	51 to 75
O=C(c1csc2c(O)nc(-c3ccccn3)nc12)N1CCNC(Cc2ccc(F)cc2)C1 (stereo not drawn) [drawing 3703]	76 to 100	76 to 100	51 to 75
O=C(c1csc2c(O)nc(-c3ccccn3)nc12)N1CCNC(Cc2cccc(F)c2)C1 (stereo not drawn) [drawing 3704]	51 to 75	51 to 75	51 to 75
COc1ccnc(-c2nc(O)c3c(C(F)(F)F)csc3n2)c1 [drawing 3705]	51 to 75	51 to 75	25 to 50
Nc1nc(-c2ccccn2)nc2c(-c3ccccc3Cl)csc12 [drawing 3707]	25 to 50	25 to 50	1 to 25
Cc1sc2c(N)nc(-c3ccccn3)nc2c1-c1ccccc1 [drawing 3709]	25 to 50	25 to 50	25 to 50
O=C(c1cc2nc(-c3ccccn3)nc(O)c2s1)N1CCOC(c2ccccc2)C1 (stereo not drawn) [drawing 3714]	76 to 100	76 to 100	51 to 75
O=C(NCCc1cccnc1)c1cc2nc(-c3ccccn3)nc(O)c2s1 [drawing 3715]	76 to 100	76 to 100	25 to 50
Cc1ccc(OC2CCCC2)c(-c2csc3c(O)nc(-c4ccccn4)nc23)c1 [drawing 3716]	51 to 75	51 to 75	51 to 75
CC(C)(C)c1ccc(-c2csc3c(O)nc(-c4ccccn4)nc23)cc1 [drawing 3719]	51 to 75	51 to 75	51 to 75
COc1ccc(CCNC(=O)c2csc3nc(-c4ccccn4)nc(N4CCS(=O)(=O)CC4)c23)cn1 [drawing 3725]	25 to 50	1 to 25	25 to 50
O=C(NCCc1cnc(O)nc1)c1csc2nc(-c3ccccn3)nc(N3CCS(=O)(=O)CC3)c12 [drawing 3726]	51 to 75	51 to 75	25 to 50
N#Cc1ccc2c(c1)CCCC2C(=O)Nc1ccnc(-c2ccccn2)n1 (stereo not drawn) [drawing 3727]	51 to 75	51 to 75	51 to 75
Oc1nc(-c2ccccn2)nc2c(-c3ccc(OC4CCOC4)cc3)csc12 (stereo not drawn) [drawing 3734]	51 to 75	76 to 100	25 to 50
Oc1nc(-c2ccccn2)nc2c(-c3ccc(OC4CCCC4)cc3)csc12 [drawing 3735]	25 to 50	25 to 50	25 to 50
Oc1nc(-c2ccccn2)nc2c(-c3ccc(C4CCC4)cc3)csc12 [drawing 3737]	51 to 75	51 to 75	51 to 75
Oc1nc(-c2ccccn2)nc2c(-c3ccccc3OC3CCCCC3)csc12 [drawing 3738]	51 to 75	51 to 75	51 to 75
Oc1nc(-c2ccccn2)nc2c(-c3ccc(OC4CCOCC4)cc3)csc12 [drawing 3739]	51 to 75	51 to 75	25 to 50
COc1cc(C)c(-c2csc3c(O)nc(-c4ccccn4)nc23)cc1C [drawing 3741]	51 to 75	25 to 50	25 to 50
Cc1cc(OC(F)F)ccc1-c1csc2c(O)nc(-c3ccccn3)nc12 [drawing 3750]	25 to 50	1 to 25	25 to 50
